Data: patent publication US7563758B2, “Enzymatic production of peracids using Lactobacilli having perhydrolysis activity” (E. I. du Pont de Nemours and Company, priority 2005, dated 2009)

Columns and labels:
Experiment in all cases: Minimum biocidal concentration (MBC) of peracetic acid, XTT microtiter assay
Format in all cases: cell-based
Details in all cases: 5-log kill; exposure at room temperature (e.g., 10 minutes)
[1] = test system: Pseudomonas aeruginosa ATCC 15442
Text: (§1) The method described by J. Gabrielson, et al. (J. Microbiol. Methods 50: 63-73 (2002)) can be employed for determination of the Minimum Biocidal Concentration (MBC) of peracids, or of hydrogen peroxide and enzyme substrates. The assay method is based on XTT reduction inhibition, where XTT ((2,3-bis[2-methoxy-4-nitro-5-sulfophenyl]-5-[(phenylamino)carbonyl]-2H-tetrazolium, inner salt, monosodium salt) is a redox dye that indicates microbial respiratory activity by a change in optical density (OD) measured at 490 nm or 450 nm. However, there are a variety of other methods available for testing the activity of disinfectants and antiseptics including, but not limited to viable plate counts, direct microscopic counts, dry weight, turbidity measurements, absorbance, and bioluminescence (see, for example Brock, Semour S., Disinfection, Sterilization, and Preservation, 5th edition, Lippincott Williams & Wilkins, Philadelphia, Pa., USA; 2001).
(§2) The minimum biocidal concentration (MBC) of peracid required to produce a 5-log kill of Staphylococcus aureus ATCC 6538, Salmonella cholerasuis ATCC 10708 and Pseudomonas aeruginosa ATCC 15442 was determined according to the following procedure. Cultures were grown in 5 mL LB broth (Media Tech, Inc.) for 17-24 hours at 35° C. with shaking and subsequently plated on Trypticase Soy Agar (VWR). At least 3 consecutive daily transfers were made. Plates were incubated for 20-24 hours at 35° C.±2° C. Each culture was removed from the agar surface by flooding with 5-7 mL of phosphate buffer, pH 7.2. (e.g., Butterflies or equivalent) and transferred into a sterile flask. The OD600 of the culture suspension was measured and the cell suspension was diluted in phosphate buffer to a final cell density between 1-2 E+05 and 1-2 E+06 CFU/mL, where the final cell concentration was adjusted to produce the concentration needed for the number of logs kill required. The peracetic acid solution to be tested was diluted by doubling dilutions from 600 ppm to 0.5 ppm in sterile water. Test inoculum (100 μL) was added each well of a 96-well microtiter plate, columns 1-11; column 12 was employed for a blank check using sterile dd water in place of inoculum. Decreasing concentrations of peracid solution (100 μL) was added across columns 1-10, and the plates held at room temperature for the required exposure time (e.g., 10 minutes). A Neutralization/detection plate was prepared with Letheen Broth (Difco #268110) and XTT (4 mM stock in water, 2,3-bis-[2-methoxy-4-nitro-5-sulfophenyl]-2H-tetrazolium-5-carboxanilide inner salt); 190 μL was added to each well of a fresh 96 well microtiter plate. From each well of the exposure plate, a 10 μL aliquot was transferred to the neutralization/detection plate. An OD450 reading was measured, and the plate incubated at 35° C.±2° C. for 24 hours. A second OD450 was measured, where orange color was indicative of cell growth. A suspension to test organism(s) was prepared equal to 1-2 E+04 CFU/mL. Add A 10 μL aliquot of this suspension was added to each negative well except column 12, and the plates incubated at 35° C.±2° C. for 24 hours. […] The MBC of peracetic acid generated enzymatically from triacetin by Lactobacillus plantarum ATCC BAA793 (Table 11) indicated equivalency with commercial peracetic acid.

[2] = test system: Salmonella cholerasuis ATCC 10708
Text: as §1, §2

[3] = test system: Staphylococcus aureus ATCC 6538
Text: as §1, §2

SMILES: CC(=O)OO [L. plantarum ATCC BAA793, peracetic acid]
- MBC in ppm PAA, Pseudomonas aeruginosa ATCC 15442 [1]: 1.4 ppm PAA
- MBC in ppm PAA, Salmonella cholerasuis ATCC 10708 [2]: 1.4 ppm PAA
- MBC in ppm PAA, Staphylococcus aureus ATCC 6538 [3]: 1.4 ppm PAA

SMILES: CC(=O)OO [Sigma Lot # 07726EC, peracetic acid, reference compound]
- MBC in ppm PAA, Pseudomonas aeruginosa ATCC 15442 [1]: 2.4-14 ppm PAA
- MBC in ppm PAA, Staphylococcus aureus ATCC 6538 [3]: 1.8-2.4 ppm PAA
